Laboratory results published in patent US20110301079A1, “NEUROMEDIN U RECEPTOR AGONISTS AND USES THEREOF” (Instituto di Ricerche di Biologia Molecolare P. Angeletti …, priority 2007, published 2011).
Residues, ends and D or L forms follow the SMILES beside them. Groups on a side chain read outwards from the residue. No end group written: not given here. *: point of attachment. Succinimide(1-Et,3-yl) = CCN1C(=O)CC(*)C1=O

Columns and labels:
[1] = molecular target: T1, human NMUR1 (Homo sapiens, UniProt Q9HB89); experiment: FLIPR calcium mobilization assay, human NMUR1-expressing cell line; type: cell-based; details: for EC50: human NMUR1, FLIPR
T1 construct: expressed in transfected cells; host or cells: FLP-In CHO cells and HEK-293 FLP-In cells (pcDNA5)
T1 sequence (Q9HB89 1-426): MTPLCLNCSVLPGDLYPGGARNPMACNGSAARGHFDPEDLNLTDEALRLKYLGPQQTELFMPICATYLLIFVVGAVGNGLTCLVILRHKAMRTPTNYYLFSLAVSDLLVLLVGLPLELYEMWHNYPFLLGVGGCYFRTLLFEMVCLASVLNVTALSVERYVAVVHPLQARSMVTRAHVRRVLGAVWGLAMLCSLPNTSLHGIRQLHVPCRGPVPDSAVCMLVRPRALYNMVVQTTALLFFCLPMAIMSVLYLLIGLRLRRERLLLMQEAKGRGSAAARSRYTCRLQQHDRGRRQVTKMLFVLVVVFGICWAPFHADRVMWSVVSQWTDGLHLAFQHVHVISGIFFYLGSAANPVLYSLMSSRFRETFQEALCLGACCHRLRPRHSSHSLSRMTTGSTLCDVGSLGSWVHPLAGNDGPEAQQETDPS
Excerpt: (§1) Human, mouse or rat cDNAs encoding NMUR1 or NMUR2 (as described in Howard et al. Nature 406: 70-74 (2000) were subcloned in pcDNA5 (Invitrogen) and transfected into FLP-In CHO cells and HEK-293 FLP-In cells purchased from Invitrogen (Carlsbad, Calif.) using lipofectamine (Invitrogen). The Flp-In system allows integration and expression of a particular gene of interest at a specific genomic location utilizing the Flp recombinase from yeast. The transfected cells were selected by growth in medium containing 200 μg/mL hygromycin (Invitrogen). Populations were frozen at early passage numbers, and these stocks were used for further studies. Stable clones that expressed the mRNAs were identified functionally by FLIPR as well as by RT-PCR. […] Two different rodent NMUR1 cell lines were thus generated: one with the codon as predicted from the genomic databases and another cell line with an engineered methionine (ATG) as the start codon. The dog NMU receptors were also cloned from intestine RNA (NMUR1) and brain (NMUR2) and stable cell lines were generated as used for the human and rodent cell lines. […] To ensure high levels of expression in a heterologous system, a dog NMUR1 cell line was generated that contains an ATG as the start codon. Additionally, stable cell lines expressing the human receptors were generated in HEK-293/aeq 17 cells which stably express the aequorin gene under the CMV promoter. The human NMUR2 cDNA was cloned into pcDNA3.1 and human NMUR1 was subcloned into pIRES-puro (Clontech, Mountain View, Calif.), after transfection cells were selected in media containing G418 and either hygromycin (NMUR2) or puromycin (NMUR1).
(§2) The NMU receptors signal primarily through Gαq/11 proteins; therefore calcium mobilization assays can be utilized for functional activity.
(§3) Stable cell lines expressing human and or rodent NMUR1 or human NMUR2 receptors are plated at a density of 12,000 cells per well overnight on poly-lysine coated 384-well black-walled plates. The following day, the media is removed from the plates and the cells were subsequently loaded with Fluo-3 (Molecular Probes), a calcium sensitive dye, diluted in FLIPR buffer (1× Hank's buffered saline containing 20 mM HEPES, 0.1% BSA, 2.5 mM probenecid (Sigma) and 1.6 mM TR40). All reagents are from Invitrogen unless otherwise noted. Peptide stocks are resuspended in DMSO at a stock concentration of 2 mM and diluted in FLIPR buffer on the day of the experiment to a 4 μM working stock solution.
(§4) After a 90 minute incubation at room-temperature, cell plates are loaded onto a FLIPR (Molecular Devices) to monitor cellular fluorescence (excitation=488 nm; emission=540 nm) before and after compound/peptide addition. Eight to twelve point dose responses are tested on NMUR-expressing cell lines using FLIPR with 1 μM peptide as the highest dose. The response after peptide addition is taken as the maximum fluorescence units minus the fluorescence immediately prior to stimulation for each well. EC50 values are calculated using GraphPad Prism (San Diego, Calif.) software.
(§5) Percent activity refers to the maximum response at 1 μM compared to the human NMU-25 response at the same concentration.

[2] = molecular target: T2, mouse NMUR2 (Mus musculus, UniProt Q8BZ39); experiment: FLIPR calcium mobilization assay, mouse NMUR2 cell line; type: cell-based; details: for EC50: mouse NMUR2, FLIPR
T2 construct: expressed in transfected cells; host or cells: FLP-In CHO cells and HEK-293 FLP-In cells (pcDNA5)
T2 sequence (Q8BZ39 whole entry): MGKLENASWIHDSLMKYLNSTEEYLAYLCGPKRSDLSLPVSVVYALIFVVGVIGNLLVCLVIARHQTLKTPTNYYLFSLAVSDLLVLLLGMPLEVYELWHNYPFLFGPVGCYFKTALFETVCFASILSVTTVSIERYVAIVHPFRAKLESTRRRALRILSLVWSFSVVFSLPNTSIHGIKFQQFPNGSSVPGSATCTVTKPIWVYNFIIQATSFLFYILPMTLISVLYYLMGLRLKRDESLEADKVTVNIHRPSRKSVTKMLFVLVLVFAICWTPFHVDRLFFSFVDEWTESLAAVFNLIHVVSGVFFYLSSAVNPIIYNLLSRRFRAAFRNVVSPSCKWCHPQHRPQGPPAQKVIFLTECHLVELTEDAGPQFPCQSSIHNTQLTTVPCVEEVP
Excerpt: as §1, §2, §3, §4, §5

[3] = molecular target: T3, dog NMUR2 (Canis lupus familiaris, UniProt A0A8I3MN59); experiment: FLIPR calcium mobilization assay, dog NMUR2 cell line; type: cell-based; details: for EC50: dog NMUR2, FLIPR
T3 construct: expressed in transfected cells
T3 sequence (A0A8I3MN59 1-378): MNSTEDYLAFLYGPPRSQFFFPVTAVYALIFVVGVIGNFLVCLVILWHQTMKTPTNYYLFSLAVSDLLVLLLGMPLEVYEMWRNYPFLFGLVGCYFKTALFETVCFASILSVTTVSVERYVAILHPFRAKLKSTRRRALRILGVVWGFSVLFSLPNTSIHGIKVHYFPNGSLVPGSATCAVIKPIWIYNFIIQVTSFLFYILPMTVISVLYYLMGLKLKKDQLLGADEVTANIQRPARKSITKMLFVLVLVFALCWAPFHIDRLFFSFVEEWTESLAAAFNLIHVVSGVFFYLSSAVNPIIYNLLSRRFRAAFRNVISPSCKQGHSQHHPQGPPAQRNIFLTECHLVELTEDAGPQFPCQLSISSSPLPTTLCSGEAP
Excerpt: as §1, §2, §3, §4, §5

[4] = molecular target: T4, human NMUR2 (Homo sapiens, UniProt Q9GZQ4); experiment: FLIPR calcium mobilization assay, human NMUR2-expressing cell line; type: cell-based; details: for EC50: human NMUR2, FLIPR
T4 construct: expressed in transfected cells; host or cells: FLP-In CHO cells and HEK-293 FLP-In cells (pcDNA5)
T4 sequence (Q9GZQ4 whole entry): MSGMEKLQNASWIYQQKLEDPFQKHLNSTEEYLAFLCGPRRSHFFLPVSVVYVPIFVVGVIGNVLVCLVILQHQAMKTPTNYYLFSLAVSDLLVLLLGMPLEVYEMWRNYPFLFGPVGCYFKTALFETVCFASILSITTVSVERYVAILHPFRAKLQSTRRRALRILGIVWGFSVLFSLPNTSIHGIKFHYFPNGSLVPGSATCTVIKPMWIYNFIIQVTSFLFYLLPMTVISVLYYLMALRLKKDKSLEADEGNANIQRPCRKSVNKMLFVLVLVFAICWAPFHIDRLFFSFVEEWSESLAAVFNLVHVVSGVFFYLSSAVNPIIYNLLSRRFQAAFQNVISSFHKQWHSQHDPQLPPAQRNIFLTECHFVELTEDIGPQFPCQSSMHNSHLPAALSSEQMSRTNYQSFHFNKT
Excerpt: as §1, §2, §3, §4, §5

[5] = molecular target: T5, mouse NMUR1-ATG (Mus musculus, UniProt O55040); experiment: FLIPR calcium mobilization assay, mouse NMUR1-ATG cell line; type: cell-based; details: for EC50: FLIPR
T5 construct: expressed in transfected cells; host or cells: FLP-In CHO cells and HEK-293 FLP-In cells (pcDNA5)
T5 sequence (O55040 1-428): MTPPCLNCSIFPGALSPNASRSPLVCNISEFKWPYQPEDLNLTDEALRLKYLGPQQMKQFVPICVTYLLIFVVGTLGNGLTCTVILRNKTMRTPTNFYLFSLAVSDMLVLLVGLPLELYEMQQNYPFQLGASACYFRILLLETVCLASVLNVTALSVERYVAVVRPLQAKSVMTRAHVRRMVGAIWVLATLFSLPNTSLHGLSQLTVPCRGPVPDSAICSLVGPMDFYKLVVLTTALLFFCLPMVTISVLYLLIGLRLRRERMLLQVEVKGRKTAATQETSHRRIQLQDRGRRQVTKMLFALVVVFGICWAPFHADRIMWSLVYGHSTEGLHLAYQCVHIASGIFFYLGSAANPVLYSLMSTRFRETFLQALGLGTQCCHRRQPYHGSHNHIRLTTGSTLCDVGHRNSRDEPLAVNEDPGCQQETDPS
Excerpt: as §1, §2, §3, §4, §5

[6] = system: dog NMUR1-ATG; experiment: FLIPR calcium mobilization assay, dog NMUR1-ATG cell line; type: cell-based; details: for EC50: FLIPR
Excerpt: as §1, §2, §3, §4, §5

[7] = system: wild-type, Nmur1 knockout, Nmur2 knockout and Nmur1/Nmur2 double knockout mice; experiment: Acute feeding study in wild-type and Nmur knockout mice; type: in vivo
Method: (§6) Ad libitum fed male diet-induced obese mice obtained from Taconic Farms were weighed and dosed either i.p. or s.c. with NMS or NMU at about 30 minutes prior to the onset of the dark phase of the light cycle and provided with a pre-weighed aliquot of high fat diet (D12492: 60% kcal from fat: Research Diets, Inc.), which was then weighed two and 18 hours after the onset of the initial dark phase. Mice were weighed at the 18 hour (overnight) time point.
NMUR1 knockout (Nmur1−/−) mice were generated using standard homologous recombination techniques. Nmur1 mice were subsequently transferred to Taconic Farms where they were either maintained on a 75% C57BL/6×25% 129S6/SvEv mixed genetic background or backcrossed 6 generations to C57BL/6. NMUR2 knockout (Nmur2−/−) mice were licensed from Deltagen Inc., San Mateo, Calif. and subsequently transferred to Taconic Farms were they were either maintained on a 75% C57BL/6×25% 129/OlaHsd mixed genetic background or backcrossed for 7 generations to C57BL/6. NMUR1 and NMUR2 double knockout (Nmur1&2−/−) mice were generated by crossing N6 Nmur1−/− mice to N7 Nmur2−/− mice. Mice were individually housed in Tecniplast cages in a conventional SPF facility. Mice were initially maintained on a regular chow diet and then early in their life were switched to a high fat diet (D12492) with ad libitum access to water in a 12-h light/12-h dark cycle.
The anorectic effects of NMS1 were mediated by both the NMUR1 and NMUR2 receptors. […] Effects on food intake (FIG. 9A) and body weight (FIG. 9B) are shown.

[8] = system: mice; experiment: Acute subcutaneous administration of NMS analogs, daily food intake and body weight; type: in vivo; details: for overnight food intake: FIG. 6A; for duration of significant reduction of food intake: daily food intake over a four-day period
Method: as §6
The efficacy of various PEGylated NMS analogs were evaluated using the aforementioned assays. The PEGylated NMS analogs evaluated were NMS1 and NMS4 (See Table 1).
NMS1, NMS3, and NMS4 were administered subcutaneously and daily food intake was measured over a four-day period.

[9] = system: male diet-induced obese mice; experiment: Acute feeding study with NMU and NMS; type: in vivo; details: acute peripheral administration (i.p. or s.c.), FIG. 1A
Method: as §6

[10] = maximum response at 1 μM compared to the human NMU-25 response at the same concentration
[11] = acute subcutaneous administration
[12] = acute subcutaneous administration, FIG. 6B

| Molecule | EC50 [1] [nM] | EC50 [2] [nM] | EC50 [3] [nM] | EC50 [4] [nM] | EC50 [5] [nM] | EC50 [6] [nM] | overnight food intake [8, 11] | body weight [8, 12] | duration of significant reduction of food intake [8, 11] | also measured |
| --- | --- | --- | --- | --- | --- | --- | --- | --- | --- | --- |
| CC[C@H](C)[C@H](NC(=O)[C@H](CSC1CC(=O)N(CC)C1=O)NC(C)=O)C(=O)N[C@@H](CC(C)C)C(=O)N[C@@H](CCC(N)=O)C(=O)N[C@@H](CCCNC(=N)N)C(=O)NCC(=O)N[C@@H](CO)C(=O)NCC(=O)N[C@H](C(=O)N[C@@H](C)C(=O)N[C@@H](C)C(=O)N[C@H](C(=O)N[C@@H](CC(=O)O)C(=O)N[C@@H](Cc1ccccc1)C(=O)N[C@H](C(=O)N[C@@H](CCCCN)C(=O)N[C@@H](CCCCN)C(=O)N[C@@H](CC(=O)O)C(=O)N[C@@H](Cc1c[nH]cn1)C(=O)N[C@H](C(=O)N[C@@H](C)C(=O)N[C@H](C(=O)N[C@@H](Cc1c[nH]c2ccccc12)C(=O)NCC(=O)N[C@@H](CCCNC(=N)N)C(=O)N1CCC[C@H]1C(=O)N[C@@H](Cc1ccccc1)C(=O)N[C@@H](Cc1ccccc1)C(=O)N[C@@H](CC(C)C)C(=O)N[C@@H](Cc1ccccc1)C(=O)N[C@@H](CCCNC(=N)N)C(=O)N1CCC[C@H]1C(=O)N[C@@H](CCCNC(=N)N)C(=O)N[C@@H](CC(N)=O)C(N)=O)[C@@H](C)O)[C@@H](C)O)[C@@H](C)O)C(C)C)[C@@H](C)O (stereo partly shown) [NMS3] (Ac-C(Succinimide(1-Et,3-yl))ILQRGSGTAAVDFTKKDHTATWGRPFFLFRPRN-NH2) | 11.4 | 11.9 | 2.2 | 18.1 | 8.7 | 11.6 |  |  |  | % Activity ([1]; human NMUR1, maximum response at 1 μM compared to the human NMU-25 response at the same concentration): 97%; % Activity ([2]; mouse NMUR2, maximum response at 1 μM compared to the human NMU-25 response at the same concentration): 108%; % Activity ([3]; dog NMUR2, maximum response at 1 μM compared to the human NMU-25 response at the same concentration): 107%; % Activity ([4]; human NMUR2, maximum response at 1 μM compared to the human NMU-25 response at the same concentration): 105%; % Activity [5, 10]: 98%; % Activity [6, 10]: 101% |
| Ac-C2ILQRGSGTAAVDFTKKDHTATWGRPFFLFRPRN-CONH2 (Ac-C([maleimide-(PEG)2 40 kDa])ILQRGSGTAAVDFTKKDHTATWGRPFFLFRPRN-NH2) [NMS1, C2 = Cys(PEG)240 kDa, cysteine PEGylated via the side-chain thiol with a branched PEG] | 141 | 29.1 | 22.5 | 397 | 589 | 18.5 | significantly reduced | Significant reductions | three days post-dose | effects on food intake and body weight ([7]; Nmur2 knockout animals, FIGS. 9A and 9B): only overnight effects; food intake ([7]; acute administration, Nmur1/Nmur2 double knockout animals, FIG. 8A): no effect; body weight ([7]; acute administration, Nmur1/Nmur2 double knockout animals, FIG. 8B): no effect; anorectic efficacy ([7]; acute administration, wild-type animals): highly efficacious; body weight ([8]; NMS1 compared to NMU9, FIG. 7B): Significant reductions; food intake ([8]; dose response, NMS1 versus NMU9, FIG. 7A): reduced food intake for at least three days post-dose in a dose-dependent manner |
| Ac-C4ILQRGSGTAAVDFTKKDHTATWGRPFFLFRPRN-CONH2 (Ac-C([maleimide-PEG 40 kDa])ILQRGSGTAAVDFTKKDHTATWGRPFFLFRPRN-NH2) [NMS4, C4 = Cys(PEG)40 kDa, cysteine PEGylated via the side-chain thiol with a linear PEG] | 73.9 | 19.4 | 3.1 | 103 | 66.2 | 13.1 | significantly reduced | Significant reductions | two days post-dose |  |
| NMU: Neuromedin U; full length 25-mer (NMU-25) in humans (FRVDEEFQSPFASQSRGYFLFRPRN; ends and bridges not checked; UniProt P48645 142-166, looked up) |  |  |  |  |  |  |  |  |  | food intake [9]: dose-dependently reduced |
